Reference: ChEMBL document CHEMBL1201862, “PubChem BioAssay data set” (2004)
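Exposure lasted 48 hours, with cells grown in 96-well plates and compounds tested at five concentrations. GI50 = concentration required for 50% inhibition of growth.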 The source made the active and inactive calls. No stated cut-off is given here; in the data, active = GI50 up to about 1.1 µM and inactive = higher.

How the values were obtained:
Experiment in all cases: NCI anticancer screen, dose series, 48 h
A498 = tested on: A498
COLO 205 = tested on: COLO 205
EKVX = tested on: EKVX
HT-29 = tested on: HT-29
Hs-578T = tested on: Hs-578T
IGROV-1 = tested on: IGROV-1
K562 = tested on: K562
M14 = tested on: M14
MDA-MB-231 = tested on: MDA-MB-231
MDA-MB-435 = tested on: MDA-MB-435
Malme-3M = tested on: Malme-3M
NCI-H226 = tested on: NCI-H226
NCI-H23 = tested on: NCI-H23
NCI-H460 = tested on: NCI-H460
RXF 393 = tested on: RXF 393
SK-MEL-2 = tested on: SK-MEL-2
SK-OV-3 = tested on: SK-OV-3
SNB-78 = tested on: SNB-78
SW-620 = tested on: SW-620
UACC-257 = tested on: UACC-257

In the case of `O=C1/C(=C/c2ccccc2)CN(C(=O)CCN2CCOCC2)C/C1=C\c1ccccc1`, the GI50 (A498) is reported as 12.9 µM (inactive), the GI50 (COLO 205) is reported as 2.74 µM (inactive) and the GI50 (EKVX) is reported as 13.6 µM (inactive). For the same compound, the GI50 (HT-29) was 1.95 µM (inactive), the GI50 (Hs-578T) was 2.6 µM (inactive) and the GI50 (IGROV-1) was 6.04 µM (inactive). The GI50 (K562) was 0.388 µM (active), the GI50 (M14) was 2.33 µM (inactive) and the GI50 (MDA-MB-231) was 3.47 µM (inactive). For the same compound, the GI50 (MDA-MB-435) was 1.9 µM (inactive), the GI50 (Malme-3M) was 2.49 µM (inactive) and the GI50 (NCI-H226) was 5.89 µM (inactive). The GI50 (NCI-H23) was 2.55 µM (inactive), the GI50 (NCI-H460) was 2.36 µM (inactive) and the GI50 (RXF 393) was 4.38 µM (inactive). The GI50 (SK-MEL-2) was 2.55 µM (inactive), the GI50 (SK-OV-3) was 10.7 µM (inactive) and the GI50 (SNB-78) was 6.4 µM (inactive). The GI50 (SW-620) was 0.459 µM (active) and the GI50 (UACC-257) was 2.13 µM (inactive).

With `Oc1ccc2c3c1OC1C(=NN=C4CCC5(O)C6Cc7ccc(O)c8c7C5(CCN6CC5CC5)C4O8)CCC4(O)C(C2)N(CC2CC2)CCC314` (stereo not drawn) the GI50 (A498) was > 42.8 µM (inactive), the GI50 (COLO 205) was 19.4 µM (inactive) and the GI50 (EKVX) was 32.4 µM (inactive). The GI50 (HT-29) was 17.1 µM (inactive), the GI50 (IGROV-1) was > 100 µM (inactive) and the GI50 (K562) was 17.2 µM (inactive). The GI50 (M14) was 18.3 µM (inactive), the GI50 (Malme-3M) was 19.8 µM (inactive) and the GI50 (NCI-H226) was > 100 µM (inactive). For the same compound, the GI50 (NCI-H23) was > 57.5 µM (inactive), the GI50 (NCI-H460) was 21.6 µM (inactive) and the GI50 (RXF 393) was 40 µM (inactive). The GI50 (SK-MEL-2) was 13.9 µM (inactive), the GI50 (SK-OV-3) was > 51.3 µM (inactive) and the GI50 (SNB-78) was 62.5 µM (inactive). The GI50 (SW-620) was 20.8 µM (inactive) and the GI50 (UACC-257) was 20.4 µM (inactive).

`COc1ccc(OC)c(NC(=O)CCC/C(CC(=O)c2ccc(O)c(OC)c2)=N\Nc2ccc([N+](=O)[O-])cc2)c1` was tested, and the GI50 (A498) was > 100 µM (inactive), the GI50 (COLO 205) was > 100 µM (inactive) and the GI50 (EKVX) was 59 µM (inactive). The GI50 (HT-29) was > 100 µM (inactive), the GI50 (IGROV-1) was > 100 µM (inactive) and the GI50 (K562) was 30.1 µM (inactive). For the same compound, the GI50 (M14) was > 100 µM (inactive), the GI50 (Malme-3M) was > 100 µM (inactive) and the GI50 (NCI-H226) was > 100 µM (inactive). The GI50 (NCI-H23) was 48.1 µM (inactive), the GI50 (NCI-H460) was > 100 µM (inactive) and the GI50 (RXF 393) was 19 µM (inactive). The GI50 (SK-MEL-2) was 51.8 µM (inactive), the GI50 (SK-OV-3) was 39 µM (inactive) and the GI50 (SNB-78) was 43.6 µM (inactive). The GI50 (SW-620) was > 100 µM (inactive) and the GI50 (UACC-257) was > 100 µM (inactive).

`O=C1O/C(=C(\Br)c2cccc3ccccc23)c2ccccc21` was tested, and the GI50 (A498) was 19.1 µM (inactive), the GI50 (COLO 205) was 28.3 µM (inactive) and the GI50 (EKVX) was > 42 µM (inactive). For the same compound, the GI50 (HT-29) was 22.5 µM (inactive), the GI50 (IGROV-1) was 27.9 µM (inactive) and the GI50 (K562) was 25.2 µM (inactive). The GI50 (M14) was > 44.2 µM (inactive), the GI50 (Malme-3M) was > 46.7 µM (inactive) and the GI50 (NCI-H226) was > 41.3 µM (inactive). For the same compound, the GI50 (NCI-H23) was > 40 µM (inactive), the GI50 (NCI-H460) was > 53.6 µM (inactive) and the GI50 (RXF 393) was > 49 µM (inactive). For the same compound, the GI50 (SK-MEL-2) was > 42.8 µM (inactive), the GI50 (SK-OV-3) was > 39.8 µM (inactive) and the GI50 (SNB-78) was 30.8 µM (inactive). The GI50 (SW-620) was 27 µM (inactive) and the GI50 (UACC-257) was > 40.9 µM (inactive).

In the case of `CCN(CC)CCn1ccc(=O)c2cc3c(=O)ccn(CCN(CC)CC)c3c(C)c21`, the GI50 (A498) is reported as 15.5 µM (inactive), the GI50 (COLO 205) is reported as 3.87 µM (inactive) and the GI50 (EKVX) is reported as 5.77 µM (inactive). The GI50 (HT-29) was 2.81 µM (inactive), the GI50 (Hs-578T) was 4.03 µM (inactive) and the GI50 (IGROV-1) was 7.28 µM (inactive). For the same compound, the GI50 (K562) was 2.77 µM (inactive), the GI50 (M14) was 9.38 µM (inactive) and the GI50 (MDA-MB-231) was 5.27 µM (inactive). The GI50 (MDA-MB-435) was 4.65 µM (inactive), the GI50 (Malme-3M) was 15 µM (inactive) and the GI50 (NCI-H226) was 10.9 µM (inactive). The GI50 (NCI-H23) was 6.75 µM (inactive), the GI50 (NCI-H460) was 1.31 µM (inactive) and the GI50 (RXF 393) was 4.56 µM (inactive). The GI50 (SK-MEL-2) was 11.6 µM (inactive), the GI50 (SK-OV-3) was 4.13 µM (inactive) and the GI50 (SNB-78) was 11.4 µM (inactive). The GI50 (SW-620) was 1.53 µM (inactive) and the GI50 (UACC-257) was 16.7 µM (inactive).

With `COC(C)(C)[C@H](O)C(O)CC(C)[C@@H]1CCC23CC12CCC1[C@@]2(C)CCC(OC(C)=O)C(C)(C)C2CC(OC2OC(COC(C)=O)C(O)C(O)C2O)[C@]13C` (stereo partly drawn) the GI50 (A498) was 8.83 µM (inactive), the GI50 (COLO 205) was 3.48 µM (inactive) and the GI50 (EKVX) was 7.46 µM (inactive). The GI50 (HT-29) was 1.22 µM (inactive), the GI50 (IGROV-1) was 2.56 µM (inactive) and the GI50 (K562) was 2.34 µM (inactive). For the same compound, the GI50 (M14) was 2.77 µM (inactive), the GI50 (Malme-3M) was 7.87 µM (inactive) and the GI50 (NCI-H226) was 8.32 µM (inactive). The GI50 (NCI-H23) was 7.18 µM (inactive), the GI50 (NCI-H460) was 2.88 µM (inactive) and the GI50 (RXF 393) was 4.05 µM (inactive). The GI50 (SK-MEL-2) was 9.29 µM (inactive), the GI50 (SK-OV-3) was 9.4 µM (inactive) and the GI50 (SNB-78) was 8.07 µM (inactive). The GI50 (SW-620) was 5.35 µM (inactive) and the GI50 (UACC-257) was 3.76 µM (inactive).

In the case of `C=C(CN(C)C)C(=O)c1ccccc1[N+](=O)[O-]`, the GI50 (A498) is reported as > 57.8 µM (inactive), the GI50 (COLO 205) is reported as 7.8 µM (inactive) and the GI50 (EKVX) is reported as > 43.5 µM (inactive). The GI50 (HT-29) was 19.2 µM (inactive), the GI50 (Hs-578T) was 22.9 µM (inactive) and the GI50 (IGROV-1) was 22.2 µM (inactive). The GI50 (K562) was 3.39 µM (inactive), the GI50 (M14) was 15.5 µM (inactive) and the GI50 (MDA-MB-231) was 18.2 µM (inactive). The GI50 (MDA-MB-435) was 16.1 µM (inactive), the GI50 (Malme-3M) was 7.76 µM (inactive) and the GI50 (NCI-H226) was 30.1 µM (inactive). The GI50 (NCI-H23) was 16.9 µM (inactive), the GI50 (NCI-H460) was 34 µM (inactive) and the GI50 (RXF 393) was 16.1 µM (inactive). For the same compound, the GI50 (SK-MEL-2) was 18 µM (inactive), the GI50 (SK-OV-3) was 37.2 µM (inactive) and the GI50 (SNB-78) was 26.7 µM (inactive). The GI50 (SW-620) was 11.3 µM (inactive) and the GI50 (UACC-257) was 15.8 µM (inactive).
